# Data as given in patent US20220031738A1, “IRON FORMULATIONS FOR TOPICAL ADMINISTRATION AND METHODS OF TREATMENT OF IRON DEFICIENCY” (DYVE BIOSCIENCES, INC., priority 2018, published 2022).
# Key:
# Assay type in all cases: in vivo
# [1] = test system: Anemic pregnant human patients; assay: Topical vs oral vs intravenous iron for anemia in pregnancy
# Procedure: In this experiment, iron (in the form of ferrous sulfate) in formulations of the invention was tested for its ability to treat anemia in pregnant patients, and compared to orally or intravenously delivered iron supplementation.
# In vivo tests were performed as follows: Anemic pregnant human patients were treated with either topical, oral or intravenous iron supplementation during 14 to 34 weeks of pregnancy. Trial design was built to assess these primary outcomes: haemoglobin and serum ferritin levels. Treatment groups randomized as follows: • a. Oral iron supplement group (200 mg of ferrous fumarate per day) • b. Intravenous iron supplement group (200 mg of iron sucrose was administered in 100 ml 0.9% sodium chloride per day) • c. Topical iron supplement group (3.34 g of topical formulation applied per day) Formulations detailed in Table 3 below
# [2] = test system: Anemic human patients with progressive renal insufficiency; assay: Topical vs oral vs intravenous iron supplementation in anemic patients with progressive renal insufficiency treated with erythropoietin
# Procedure: In this experiment, iron (in the form of ferrous sulfate) in formulations of the invention was tested for its ability to treat anemia in patients with progressive renal insufficiency, and compared to orally or intravenously delivered iron supplementation.
# In vivo tests were performed as follows: Anemic human patients with progressive renal insufficiency were treated with either topical, oral or intravenous iron supplementation and evaluated at baseline, 3 months and 6 months. Trial design was built to assess these primary outcomes: hemoglobin response, serum ferritin levels, changes in red cell hypochromasia, and incidence of adverse events. Treatment groups randomized as follows: • Oral iron supplement group (ferrous sulphate 200 mg tds) • Intravenous iron supplement group (300 mg iron sucrose monthly) • Topical iron supplement group (3.34 g of topical formulation applied tds) Formulations detailed below in Table 1 • In all groups Erythropoietin (rHuEpo) treatment was simultaneously commenced.
# [3] = test system: human patients with chemotherapy-related anemia; assay: Topical vs oral vs intravenous iron in anemic cancer patients receiving darbepoetin alfa; conditions: 8 weeks, with darbepoetin alfa 500 mcg every 3 weeks; oral = sucrosomial iron 30 mg daily; IV = ferric gluconate 125 mg weekly; topical = 0.50 g Table 4 formulation daily
# Procedure: In this experiment, iron (in the form of ferrous sulfate) in formulations of the invention was tested for its ability to help treat chemotherapy-induced anemia in cancer patients when combined with erythropoiesis-stimulating agents (ESAs), and compared to orally or intravenously delivered iron supplementation. […] Trial design was built to assess this primary outcome: Hb response as defined as the Hb increase ≥2 g/dL from baseline or the attainment Hb ≥12 g/dL. Treatment groups randomized as follows: • a. Oral iron supplement group (sucrosomial iron 30 mg daily) • b. […] Topical iron supplement group (0.50 g of topical formulation applied daily) Formulations detailed in Table 4 below
# [4] = test system: Anemic human patients with progressive renal insufficiency; assay: Topical vs oral vs intravenous iron for iron deficiency in non-hemodialysis-dependent patients with chronic kidney disease; conditions: oral = ferrous sulphate 325 mg thrice daily; intravenous ferric carboxymaltose; topical = 5.42 g Table 2 formulation tds
# Procedure: In this experiment, iron (in the form of ferrous sulfate) in formulations of the invention was tested for its ability to treat iron deficiency in non-hemodialysis dependent patients with chronic kidney disease, and compared to orally or intravenously delivered iron supplementation.
# In vivo tests were performed as follows: Anemic human patients with progressive renal insufficiency were treated with either topical, oral or intravenous iron supplementation. Trial design was built to assess these primary outcomes: hemoglobin response, and incidence of adverse events. Treatment groups randomized as follows: • a. Oral iron supplement group (ferrous sulphate 325 mg thrice daily for a total of 195 mg elemental iron daily) • b. Intravenous iron supplement group (intravenous ferric carboxymaltose 1000 mg over 15 min (with up to two additional doses of 500 mg at 2-week intervals)) • c. Topical iron supplement group (5.42 g of topical formulation applied tds) Formulations detailed in Table 2 below.
# [5] = test system: human IBD patients with anemia; assay: Topical vs oral vs intravenous iron for anemia in inflammatory bowel disease
# Procedure: In this experiment, iron (in the form of ferrous sulfate) in formulations of the invention was tested for its ability to help treat anemia in inflammatory bowel disease (IBD) patients and compared to orally or intravenously delivered iron supplementation.
# In vivo tests were performed as follows: human IBD patients with anemia were treated with either topical, oral or intravenous iron supplementation for 12 weeks. Trial design was built to assess this primary outcome: change in hemoglobin (Hb) from baseline to week 12. Treatment groups randomized as follows: • a. Oral iron supplement group (FeSulf containing 100 mg ferrous iron (II). Patients received one capsule b.i.d. for 12 wk) • b. Intravenous iron supplement group (ferric carboxymaltose (FeCarb) 50 mg ferric iron (III) per milliliter in water with individual patient dosage calculated according to the formula of Ganzoni) • c. Topical iron supplement group (1.67 g of topical formulation applied b.i.d.) Formulations detailed in Table 5 below
# [6] = test system: human iron-depleted, nonanemic women; assay: Topical vs oral iron to improve endurance after training in iron-depleted, nonanemic women; conditions: oral = ferrous sulfate 100 mg per day
# Procedure: In this experiment, iron (in the form of ferrous sulfate) in formulations of the invention was tested for its ability to help improve endurance after training in iron-depleted, nonanemic women and compared to orally delivered iron supplementation.
# In vivo tests were performed as follows: human iron-depleted (serum ferritin <16 μg/l), nonanemic (Hb >12 g/dl) women (18-33 yr old) were treated with either topical or oral iron supplementation for 6 weeks. Subjects trained for 30 min/day, 5 days/wk at 75-85% of maximum heart rate for the final 4 wk of the study. Trial design was built to assess this primary outcome: change in 15 km time from baseline to […]. Treatment groups randomized as follows: • a. Control group: oral placebo • b. Oral iron supplement group (100 mg of ferrous sulfate per day) • c. Topical iron supplement group (1.67 g of topical formulation applied daily) Formulations detailed in Table 6 below
compound,measurement,setting,value
iron sucrose,change in hemoglobin,"[1]; pregnant women, 14 to 34 weeks of pregnancy, oral = ferrous fumarate 200 mg per day, intravenous = iron sucrose 200 mg per day, topical = 3.34 g Table 3 formulation per day",22 ± 11.5 g/L
same,patients with increase in ferritin level between 51 to 100 ng/ml,[1]; same arms as E9,48%
same,serum ferritin levels versus oral,"[2]; comparator oral ferrous sulphate 200 mg tds, intravenous = iron sucrose 300 mg monthly, topical = 3.34 g Table 1 formulation tds",statistical significantly higher
same,"allergic reactions reported, share of patients","[2]; human, in vivo",10%
same,"serum ferritin levels, topical versus intravenous","[2]; intravenous = iron sucrose 300 mg monthly, topical = 3.34 g Table 1 formulation tds",not statistically different
ferric gluconate,patients achieving an erythropoietic (Hb) response: Hb increase ≥2 g/dL from baseline or Hb ≥12 g/dL,[3],Seventy one
ferric carboxymaltose,treatment-related adverse events,[4],2.7%
same,median Hb after treatment (week 12),"[5]; 12 weeks, same arms as E16",12.3 g/dL
same,median Hb at baseline,"[5]; before treatment, oral = FeSulf 100 mg ferrous iron b.i.d., IV = ferric carboxymaltose (Ganzoni dose), topical = 1.67 g Table 5 formulation b.i.d.",8.7 g/dL
O=S(=O)([O-])[O-].[Fe+2] [ferrous sulphate],"allergic reactions reported, share of patients","[2]; oral = ferrous sulphate, intravenous = iron sucrose, transdermal = Table 1 formulation",none
same,decrease in 15-km time vs the placebo control group,[6]; topical = 1.67 g Table 6 formulation daily,statistically significantly greater
same,"decrease in 15-km time, oral versus transdermal",[6]; transdermal = 1.67 g Table 6 formulation daily,no statistical difference
O=C([O-])/C=C/C(=O)[O-].[Fe+2] [ferrous fumarate],participants with an improvement in hemoglobin more than 20 g/L,[1]; same arms as E9,11%
